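Protocol summary: plate cells (96-well), add compound at 5 concentrations, incubate 48 h, interpolate endpoints linearly. GI50 marks 50% less growth.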 Active and inactive are the calls of the source. Cut-off read from the data, not from the text of the source: active = GI50 up to about 1.1 µM and inactive = higher.
Key:
Experiment in all cases: DTP human tumour cell line panel, 48 h
MOLT-4 = system: MOLT-4
HCT-116 = system: HCT-116
NCI/ADR-RES = system: NCI/ADR-RES
SF-539 = system: SF-539
HOP-92 = system: HOP-92
BT-549 = system: BT-549
DU-145 = system: DU-145
M14 = system: M14
SK-MEL-2 = system: SK-MEL-2
MCF7 = system: MCF7
SNB-19 = system: SNB-19
SF-268 = system: SF-268
786-0 = system: 786-0
SF-295 = system: SF-295
HCC 2998 = system: HCC 2998
SK-MEL-28 = system: SK-MEL-28
EKVX = system: EKVX
IGROV-1 = system: IGROV-1
A549 = system: A549
UACC-62 = system: UACC-62

Measured: GI50

CC(=O)N(CC(=O)C(=O)NNc1ccoc1)c1ccc(Cl)cc1
inactive: MOLT-4 > 100 µM | HCT-116 > 100 µM | NCI/ADR-RES > 100 µM | SF-539 > 100 µM | HOP-92 > 100 µM | BT-549 > 100 µM | DU-145 87.3 µM | M14 > 100 µM | SK-MEL-2 > 100 µM | MCF7 50.5 µM | SNB-19 > 100 µM | SF-268 > 100 µM | 786-0 94 µM | SF-295 > 100 µM | HCC 2998 > 100 µM | SK-MEL-28 > 100 µM | EKVX > 100 µM | IGROV-1 > 100 µM | A549 > 100 µM

COc1ccc(C(=O)/C=C/c2ccc(OCC#N)cc2)cc1OC
inactive: MOLT-4 10.3 µM | HCT-116 5.09 µM | NCI/ADR-RES 18.5 µM | SF-539 17.9 µM | HOP-92 22.6 µM | BT-549 15.5 µM | DU-145 11.6 µM | M14 16.4 µM | MCF7 3.15 µM | SNB-19 15.1 µM | SF-268 26.6 µM | UACC-62 16.7 µM | 786-0 19.9 µM | SF-295 > 10 µM | HCC 2998 18.2 µM | SK-MEL-28 14.6 µM | EKVX 14.9 µM | IGROV-1 30.5 µM | A549 29.1 µM

Cc1cc(C#N)c(Nc2ccccc2[N+](=O)[O-])s1
inactive: MOLT-4 55.7 µM | HCT-116 23.8 µM | NCI/ADR-RES 17.4 µM | SF-539 27.7 µM | HOP-92 57.9 µM | BT-549 19.4 µM | DU-145 17.7 µM | M14 32.8 µM | MCF7 32.5 µM | SNB-19 41 µM | SF-268 51.5 µM | UACC-62 54.2 µM | 786-0 49.9 µM | SF-295 24.8 µM | HCC 2998 40.8 µM | SK-MEL-28 45.2 µM | EKVX 22.3 µM | IGROV-1 13.8 µM | A549 85.3 µM

COc1cc(C2C3=C(NC(=O)C2C#N)c2ccc4ccccc4c2OCC3)cc(OC)c1OC (stereo not drawn)
inactive: MOLT-4 34.2 µM | HCT-116 15.7 µM | NCI/ADR-RES 30.4 µM | SF-539 18.7 µM | HOP-92 10.4 µM | BT-549 17.3 µM | DU-145 34.4 µM | M14 50 µM | SK-MEL-2 22.1 µM | MCF7 30.9 µM | SNB-19 28.3 µM | SF-268 22.8 µM | 786-0 31.5 µM | SF-295 27.6 µM | HCC 2998 25 µM | SK-MEL-28 18.3 µM | EKVX 89.7 µM | IGROV-1 16.2 µM | A549 54.2 µM

C=C(C)C1Cc2c(cc(O)c3c(=O)c4c(oc23)C(O)Oc2cc(OC)c(OC)cc2-4)O1 (stereo not drawn)
inactive: MOLT-4 > 10 µM | HCT-116 > 10 µM | NCI/ADR-RES > 10 µM | SF-539 > 10 µM | HOP-92 > 10 µM | BT-549 > 10 µM | DU-145 > 10 µM | M14 > 10 µM | MCF7 > 10 µM | SNB-19 > 10 µM | SF-268 > 10 µM | UACC-62 > 10 µM | 786-0 > 10 µM | SF-295 > 10 µM | HCC 2998 > 10 µM | SK-MEL-28 > 10 µM | EKVX > 10 µM | IGROV-1 > 10 µM | A549 > 10 µM

CCCCCCc1ccc(CCCCCCCC(=O)O)o1
inactive: MOLT-4 16.4 µM | HCT-116 68.5 µM | NCI/ADR-RES > 100 µM | SF-539 > 100 µM | HOP-92 > 100 µM | BT-549 > 100 µM | DU-145 > 100 µM | M14 > 100 µM | SK-MEL-2 > 100 µM | MCF7 44.8 µM | SNB-19 > 100 µM | 786-0 > 100 µM | SF-295 55.5 µM | HCC 2998 > 100 µM | SK-MEL-28 > 100 µM | EKVX > 100 µM | IGROV-1 > 100 µM | A549 50 µM

Source: ChEMBL document CHEMBL1201862, “PubChem BioAssay data set” (2004)
